ChEMBL document CHEMBL1201862, “PubChem BioAssay data set” (2004)
“And” between values parts separate entries of the source, which are not always exact repeats. Equal entries are not always repeated. The source made the active and inactive calls.

What was measured:
[1] = Potency on glucagon-like peptide 1 release, dose-response in NCI-H716 cell line, half maximal inhibitory concentration (AID 1117344); assay type: functional, cell-based
Cytochrome P450 2C9 = Cytochrome P450 2C9 (Homo sapiens, UniProt P11712)
Cytochrome P450 1A2 = target: T1, Cytochrome P450 1A2 (Homo sapiens, UniProt P05177);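 also: PubChem cytochrome P450 panel assay, CYP1A2 panel member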
T1 sequence (P05177 whole entry): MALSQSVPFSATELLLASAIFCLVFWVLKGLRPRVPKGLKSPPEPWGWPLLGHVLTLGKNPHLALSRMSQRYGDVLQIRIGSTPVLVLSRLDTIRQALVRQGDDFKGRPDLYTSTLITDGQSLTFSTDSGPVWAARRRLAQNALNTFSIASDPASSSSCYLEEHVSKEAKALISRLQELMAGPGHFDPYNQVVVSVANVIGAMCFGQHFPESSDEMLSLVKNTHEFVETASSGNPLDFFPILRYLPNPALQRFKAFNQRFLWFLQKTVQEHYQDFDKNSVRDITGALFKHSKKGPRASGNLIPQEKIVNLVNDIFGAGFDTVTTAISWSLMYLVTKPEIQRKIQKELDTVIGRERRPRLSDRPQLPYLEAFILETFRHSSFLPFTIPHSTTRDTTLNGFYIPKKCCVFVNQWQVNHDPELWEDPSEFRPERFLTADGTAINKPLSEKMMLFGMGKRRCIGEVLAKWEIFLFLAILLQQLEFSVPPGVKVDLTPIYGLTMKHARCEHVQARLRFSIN

[2] = glucagon-like peptide-1 release potency in STC-1, concentration-response, half-maximal inhibitory concentration in the STC-1 line (AID 1117345); assay type: functional, cell-based
[3] = cytotoxicity toward HCT116 cells – cell-based, CellTiter-Glo luminescence, IC50, dose response (AID 1117332); assay type: functional; conditions: HCT-116
[4] = cytotoxicity toward HT-29 cells – cell-based, CellTiter-Glo luminescence, IC50, dose response (AID 1117330); assay type: functional
[5] = cytotoxicity toward Colo320 cells – cell-based, CellTiter-Glo luminescence, IC50, dose response (AID 1117334); assay type: functional; conditions: COLO 320
[6] = CellTiter-Glo luminescence survival assay, SW480 colon tumor line, concentration-response curve, half-maximal inhibitory concentration (AID 1117338); assay type: functional
[7] = target: Eukaryotic translation initiation factor 4E (Mus musculus, UniProt P63073); experiment: blockers of eIF4G binding by eIF4E – biochemical, TR-FRET, dose response (AID 855); assay type: functional;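 also: potency for disrupting eIF4E binding to eIF4GI seen as loss of FRET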
[8] = rise of 4N DNA cells, HeLa – IC50, dose response (AID 1117351); assay type: functional, cell-based
[9] = SNU-C1 cell viability reduction, dose response, CellTiter-Glo luminescence (AID 1117323); assay type: functional, cell-based
[10] = Reduced DLD-1 viability, concentration-response, CellTiter-Glo luminescence (AID 1117352); assay type: functional
[11] = target: Induced myeloid leukemia cell differentiation protein Mcl-1 (Homo sapiens, UniProt Q07820); experiment: Mcl-1 Noxa peptide disruption concentration-response – biochemical, TR-FRET, dose response (AID 1417); assay type: functional
[12] = rise of 2N DNA cells, HeLa – IC50, dose response (AID 1117349); assay type: functional, cell-based
[13] = RKO cell viability reduction, dose response, CellTiter-Glo luminescence (AID 1117322); assay type: functional
[14] = IC50 of Artemis nuclease activity blockers – biochemical, fluorescence intensity, dose response (AID 720701); assay type: functional;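 also: Artemis endonuclease enzyme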
[15] = OVCAR8 cell viability loss – plate reader, dry powder samples, PAX8 project, dose response (AID 743197); assay type: functional, cell-based; conditions: OVCAR-8
[16] = general mammalian cell viability loss – inhibitor set, cherry-pick, set 2, cytotoxicity control for miR-122 modulator project, dose response (AID 720697); assay type: functional, cell-based
[17] = activation of miR-122 Renilla sensor silencing – cell-based, Huh7 psiCHECK-miR122, Renilla luciferase, cherry-picked, dose response (AID 651956); assay type: functional;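 also: huh7 hepatoma cells stably carrying a psiCHECK-2 miR-122 sensor plasmid; renilla luciferase signal reporting endogenous miR-122 activity after 48 h compound exposure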
[18] = general mammalian cell viability loss – activator set, cherry-pick, cytotoxicity control for miR-122 modulator project, dose response (AID 720690); assay type: functional, cell-based;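 also: HEK293T human cells scored for general mammalian cytotoxicity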
[19] = viability loss in A549 lung cells – cell-based, 24 h, CellTiter-Glo luminescence, cherry-picks, cytotoxicity control, dose response (AID 1053115); assay type: functional; conditions: A549, 24 h
[20] = lung carcinoma cell viability loss – CellTiter-Glo luminescence, dry powder, set 17, dose response (AID 1117284); assay type: functional, cell-based; conditions: A549
Paired box protein Pax-8 = Paired box protein Pax-8 (Homo sapiens, UniProt Q06710); experiment: PAX8 transcriptional activity inhibition in RMG-I – RMG-I cells, luciferase, cherry-pick, dose response (AID 687027); assay type: functional, cell-based;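 also: luciferase reporter driven by Pax8 target thyroperoxidase promoter measured by SteadyGlo luminescence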
[21] = target: Metabotropic glutamate receptor 7 (Homo sapiens, UniProt Q14831); experiment: potentiation of glutamate EC20 at mGlu7 – cell-based, calcium mobilization, Galpha15, dose response (AID 743384); assay type: functional
[22] = Dd2 malaria parasite growth inhibition potency – SYBR Green, dry powder samples, dose response (AID 1159566); assay type: functional, cell-based;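 also: potency for growth inhibition with lower SYBR green DNA signal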
[23] = toxicity to human HepG2 hepatoma cells – cell-based, plate reader, dry powder samples, cytotoxicity control, dose response (AID 1159569); assay type: functional;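 also: inhibitor potency with signal falling toward the positive control level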
[24] = growth inhibition of yeast DHODH-expressing 3D7 parasites – SYBR Green, dry powder samples, dose response (AID 1159570); assay type: functional, cell-based;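 also: parasite growth measured after 72 hours of compound exposure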
[25] = Plasmodium falciparum Dd2 Sybr green parasite growth Measured in Cell-Based and Microorganism Combination System Using Plate Reader - 2153-01_Inhibitor_Dose_DryPowder_Activity_Set3.; assay type: functional
[26] = P. falciparum Dd2 growth inhibitors, dose response, SYBR Green, cherry-picked samples (AID 1159567); assay type: functional, cell-based
[27] = growth inhibition of PfATP4-mutant resistant parasites – NITD609-resistant line, SYBR Green, dry powder, dose response (AID 1159571); assay type: functional, cell-based;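 also: parasites synchronized at ring stage by sorbitol before testing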
[28] = Dd2 parasite growth inhibition in erythrocytes – SYBR Green, dry powder samples, set 9, dose response (AID 1159568); assay type: functional, cell-based
Vero [29] = experiment: Vero cell viability after compound exposure – synthesized analogs, set II, cytotoxicity control for West Nile virus antiviral project, SAR follow-up (AID 2402); assay type: functional; conditions: Chlorocebus sabaeus
[30] = target: Potassium channel subfamily K member 3 (Homo sapiens, UniProt O14649); experiment: inhibition of human KCNK3 channel flux – CHO cells, FluxOR thallium flux, SAR follow-up (AID 652212); assay type: functional
[31] = target: Potassium channel subfamily K member 9 (Homo sapiens, UniProt Q9NPC2); experiment: TASK3 channel blockers, electrophysiology – cell-based, automated electrophysiology, selectivity assay for TASK1 (KCNK3) inhibitor project, SAR follow-up (AID 652210); assay type: functional
[32] = target: T2, Mannose-6-phosphate isomerase (Homo sapiens, UniProt P34949); experiment: MPI inhibition at elevated mannose 6-phosphate – biochemical, fluorescence intensity, high mannose 6-phosphate, primary screen (AID 1220)
T2 sequence (P34949 whole entry): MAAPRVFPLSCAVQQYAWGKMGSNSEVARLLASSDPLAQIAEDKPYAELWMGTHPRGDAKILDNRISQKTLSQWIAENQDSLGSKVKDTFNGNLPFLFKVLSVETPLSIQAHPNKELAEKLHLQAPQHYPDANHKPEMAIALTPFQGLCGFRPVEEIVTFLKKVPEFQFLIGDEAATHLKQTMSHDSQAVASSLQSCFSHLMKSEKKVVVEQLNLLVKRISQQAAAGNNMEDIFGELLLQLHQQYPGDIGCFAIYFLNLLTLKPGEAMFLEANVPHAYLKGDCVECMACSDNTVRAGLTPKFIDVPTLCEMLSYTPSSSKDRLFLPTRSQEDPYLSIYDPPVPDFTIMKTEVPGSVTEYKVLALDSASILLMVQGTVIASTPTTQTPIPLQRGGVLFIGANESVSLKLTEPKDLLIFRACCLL

[33] = target: T2, Mannose-6-phosphate isomerase; experiment: MPI enzyme activity inhibition – biochemical, fluorescence intensity, coupled assay, primary screen (AID 1209)
Vero [34] = experiment: viability of Vero cells under compound – cytotoxicity control for flavivirus capping enzyme inhibitors (AID 588742); assay type: functional; conditions: Chlorocebus sabaeus
[35] = NIH3T3 cell viability loss – ATP luminescence, mouse fibroblasts, counter-screen, dose response (AID 2010); assay type: functional, cell-based;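 also: cells exposed to compound for about 90 hours before reading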
[36] = viability loss in HeLa cells – cytotoxicity control for MgcRacGAP inhibitor project, dose response (AID 624300); assay type: functional
[37] = Trypanosoma cruzi growth suppression in host cells – NIH3T3 host cells, beta-gal luminescence, confirmation (AID 2044); assay type: functional, cell-based;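 also: intracellular parasites grown in NIH/3T3 mouse fibroblasts as host cells; luminescent beta-galactosidase reporter signal from transgenic T. cruzi replicating inside host cells; inhibitors lower the luminescence signal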
Genome polyprotein = Genome polyprotein (dengue virus type 2, UniProt P29990); experiment: flavivirus cap methylation enzyme inhibition – biochemical, confirmation dose response, primary screen (AID 588689); assay type: functional
[38] = viability of uninfected HEp-2 cells – cell-based, HTS, cytotoxicity control for RSV inhibitor project, dose response (AID 2410); assay type: functional; conditions: human respiratory syncytial virus
[39] = viability loss in Vero cells – cytotoxicity control for Vif-APOBEC3G degradation inhibitor project, dose response (AID 1117358); assay type: functional; conditions: Vero

Sequence of Induced myeloid leukemia cell differentiation protein Mcl-1 (Q07820 whole entry): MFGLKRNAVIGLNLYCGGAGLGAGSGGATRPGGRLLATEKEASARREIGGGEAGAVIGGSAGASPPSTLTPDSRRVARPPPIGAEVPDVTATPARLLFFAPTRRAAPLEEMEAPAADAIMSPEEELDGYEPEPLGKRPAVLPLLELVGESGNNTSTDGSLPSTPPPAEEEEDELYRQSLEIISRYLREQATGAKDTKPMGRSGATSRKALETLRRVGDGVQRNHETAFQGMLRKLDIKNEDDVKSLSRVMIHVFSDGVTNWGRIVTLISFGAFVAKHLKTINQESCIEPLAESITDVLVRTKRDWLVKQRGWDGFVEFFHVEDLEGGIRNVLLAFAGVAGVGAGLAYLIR
Sequence of Cytochrome P450 2C9 (P11712 whole entry): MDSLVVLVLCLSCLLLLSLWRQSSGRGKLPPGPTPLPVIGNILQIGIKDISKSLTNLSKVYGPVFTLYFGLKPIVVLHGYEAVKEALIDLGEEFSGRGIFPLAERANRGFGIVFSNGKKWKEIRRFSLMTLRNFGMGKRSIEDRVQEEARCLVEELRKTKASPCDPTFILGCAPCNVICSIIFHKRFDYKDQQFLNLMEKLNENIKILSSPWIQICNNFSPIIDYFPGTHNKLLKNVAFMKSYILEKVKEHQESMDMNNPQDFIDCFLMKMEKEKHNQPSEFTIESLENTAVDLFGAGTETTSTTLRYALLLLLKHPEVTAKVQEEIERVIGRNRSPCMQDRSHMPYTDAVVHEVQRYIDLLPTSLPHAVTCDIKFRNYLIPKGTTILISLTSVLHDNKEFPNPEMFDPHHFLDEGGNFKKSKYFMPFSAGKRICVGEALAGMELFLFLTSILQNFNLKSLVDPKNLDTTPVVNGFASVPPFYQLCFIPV
Sequence of Paired box protein Pax-8 (Q06710 whole entry): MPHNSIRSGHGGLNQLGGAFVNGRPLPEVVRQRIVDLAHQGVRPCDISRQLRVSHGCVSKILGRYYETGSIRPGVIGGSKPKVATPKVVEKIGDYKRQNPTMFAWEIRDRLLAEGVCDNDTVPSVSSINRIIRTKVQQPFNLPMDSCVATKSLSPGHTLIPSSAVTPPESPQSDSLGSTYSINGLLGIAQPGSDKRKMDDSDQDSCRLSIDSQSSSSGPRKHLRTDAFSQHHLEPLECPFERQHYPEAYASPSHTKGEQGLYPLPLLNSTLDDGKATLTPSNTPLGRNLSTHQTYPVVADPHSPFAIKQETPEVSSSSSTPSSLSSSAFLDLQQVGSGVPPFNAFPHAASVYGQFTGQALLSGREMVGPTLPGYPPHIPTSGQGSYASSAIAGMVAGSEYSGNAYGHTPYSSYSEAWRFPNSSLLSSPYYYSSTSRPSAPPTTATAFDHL
Sequence of Potassium channel subfamily K member 3 (O14649 whole entry): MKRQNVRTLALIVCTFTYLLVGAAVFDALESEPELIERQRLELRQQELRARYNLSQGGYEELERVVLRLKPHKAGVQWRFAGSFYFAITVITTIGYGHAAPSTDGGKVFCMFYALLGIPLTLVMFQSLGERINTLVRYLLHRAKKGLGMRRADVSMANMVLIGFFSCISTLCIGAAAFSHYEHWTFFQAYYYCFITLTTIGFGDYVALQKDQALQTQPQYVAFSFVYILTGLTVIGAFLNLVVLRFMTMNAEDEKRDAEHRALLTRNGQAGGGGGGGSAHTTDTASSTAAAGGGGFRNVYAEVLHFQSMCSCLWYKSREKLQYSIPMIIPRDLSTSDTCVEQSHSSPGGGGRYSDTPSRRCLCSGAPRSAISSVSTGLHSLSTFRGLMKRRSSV
Sequence of Potassium channel subfamily K member 9 (Q9NPC2 whole entry): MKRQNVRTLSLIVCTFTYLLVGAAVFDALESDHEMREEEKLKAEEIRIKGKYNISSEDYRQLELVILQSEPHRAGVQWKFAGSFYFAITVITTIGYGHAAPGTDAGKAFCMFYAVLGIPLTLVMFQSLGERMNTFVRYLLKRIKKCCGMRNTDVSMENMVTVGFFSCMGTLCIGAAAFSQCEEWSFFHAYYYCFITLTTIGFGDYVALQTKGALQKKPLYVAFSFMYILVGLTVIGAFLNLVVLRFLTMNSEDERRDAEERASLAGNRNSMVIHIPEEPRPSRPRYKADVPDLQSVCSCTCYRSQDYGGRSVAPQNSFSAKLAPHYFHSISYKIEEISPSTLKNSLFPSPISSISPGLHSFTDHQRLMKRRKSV
Sequence of Eukaryotic translation initiation factor 4E (P63073 whole entry): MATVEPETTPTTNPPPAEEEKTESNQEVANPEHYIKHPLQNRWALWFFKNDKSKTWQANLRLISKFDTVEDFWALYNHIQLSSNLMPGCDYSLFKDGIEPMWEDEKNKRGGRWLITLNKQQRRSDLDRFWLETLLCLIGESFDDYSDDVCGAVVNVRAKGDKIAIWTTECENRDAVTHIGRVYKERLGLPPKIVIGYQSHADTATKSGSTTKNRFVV
Sequence of Metabotropic glutamate receptor 7 (Q14831 whole entry): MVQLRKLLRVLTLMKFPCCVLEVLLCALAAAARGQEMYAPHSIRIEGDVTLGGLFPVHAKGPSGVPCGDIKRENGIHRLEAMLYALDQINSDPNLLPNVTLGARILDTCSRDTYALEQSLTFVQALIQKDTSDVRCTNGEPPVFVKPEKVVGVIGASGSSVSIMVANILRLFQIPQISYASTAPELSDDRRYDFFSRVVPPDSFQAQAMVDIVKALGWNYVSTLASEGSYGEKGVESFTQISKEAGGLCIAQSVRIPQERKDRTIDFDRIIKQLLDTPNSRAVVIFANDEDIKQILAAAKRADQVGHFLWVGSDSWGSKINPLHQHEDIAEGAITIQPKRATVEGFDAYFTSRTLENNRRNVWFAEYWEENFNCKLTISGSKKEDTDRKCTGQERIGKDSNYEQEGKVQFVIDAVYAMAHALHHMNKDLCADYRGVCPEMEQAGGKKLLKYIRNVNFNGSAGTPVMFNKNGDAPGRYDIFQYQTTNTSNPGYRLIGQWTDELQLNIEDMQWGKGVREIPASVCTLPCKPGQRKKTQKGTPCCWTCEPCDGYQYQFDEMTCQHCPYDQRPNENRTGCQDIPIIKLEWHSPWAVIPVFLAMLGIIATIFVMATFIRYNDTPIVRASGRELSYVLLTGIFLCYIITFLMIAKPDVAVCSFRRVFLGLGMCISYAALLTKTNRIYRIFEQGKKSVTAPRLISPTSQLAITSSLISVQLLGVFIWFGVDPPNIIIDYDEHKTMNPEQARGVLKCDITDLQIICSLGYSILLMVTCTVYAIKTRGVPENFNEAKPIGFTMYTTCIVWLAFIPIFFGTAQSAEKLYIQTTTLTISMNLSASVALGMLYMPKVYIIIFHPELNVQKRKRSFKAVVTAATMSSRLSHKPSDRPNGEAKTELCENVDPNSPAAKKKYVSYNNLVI
Sequence of Genome polyprotein (P29990 2492-3391 limits assumed): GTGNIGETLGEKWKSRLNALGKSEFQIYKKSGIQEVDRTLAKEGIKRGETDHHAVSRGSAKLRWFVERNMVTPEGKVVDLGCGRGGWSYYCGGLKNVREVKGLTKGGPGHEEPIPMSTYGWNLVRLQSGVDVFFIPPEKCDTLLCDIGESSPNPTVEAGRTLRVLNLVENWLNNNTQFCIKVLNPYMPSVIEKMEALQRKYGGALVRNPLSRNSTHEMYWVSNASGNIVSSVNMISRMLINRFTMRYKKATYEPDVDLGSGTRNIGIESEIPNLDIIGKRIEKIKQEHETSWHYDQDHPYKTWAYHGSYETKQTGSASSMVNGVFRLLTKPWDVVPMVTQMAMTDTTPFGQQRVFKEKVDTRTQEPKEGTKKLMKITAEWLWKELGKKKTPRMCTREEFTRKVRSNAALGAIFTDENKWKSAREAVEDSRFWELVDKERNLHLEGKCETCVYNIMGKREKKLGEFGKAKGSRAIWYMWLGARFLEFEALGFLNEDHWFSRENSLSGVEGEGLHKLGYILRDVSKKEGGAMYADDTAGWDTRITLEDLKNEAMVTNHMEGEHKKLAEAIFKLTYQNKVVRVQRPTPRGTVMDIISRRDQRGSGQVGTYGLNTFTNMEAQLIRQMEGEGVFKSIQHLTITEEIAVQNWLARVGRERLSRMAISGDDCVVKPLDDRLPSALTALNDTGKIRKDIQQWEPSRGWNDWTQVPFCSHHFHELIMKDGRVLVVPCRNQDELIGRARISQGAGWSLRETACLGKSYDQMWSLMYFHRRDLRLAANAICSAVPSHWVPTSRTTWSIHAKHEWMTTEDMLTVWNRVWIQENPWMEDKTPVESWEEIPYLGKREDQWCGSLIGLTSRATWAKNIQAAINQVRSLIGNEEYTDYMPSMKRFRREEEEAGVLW

## Cc1cc2c(C(C)C)c(O)c(O)c(C=O)c2c(O)c1-c1c(C)cc2c(C(C)C)c(O)c(O)c(C=O)c2c1O [GOSSYPOL]
[1]
  IC50: 23.4 µM (inactive)
Cytochrome P450 2C9
  AC50: 31.6 µM (inconclusive) and 15.8 µM (inconclusive)
Cytochrome P450 1A2
  AC50: 15.8 µM (inconclusive) and 39.8 µM (inconclusive)
[2]
  IC50: > 40 µM (inactive)
[3]
  IC50: 0.784 µM (active)
[4]
  IC50: 1.42 µM (active)
[5]
  IC50: 1.38 µM (active)
[6]
  IC50: 0.956 µM (active)
[7]
  IC50: > 64 µM (inactive)
[8]
  IC50: > 10 µM (inactive)
[9]
  IC50: 0.354 µM (active)
[10]
  IC50: 0.834 µM (active)
[11]
  IC50: 1.52 µM (active)
[12]
  IC50: > 10 µM (inactive)
[13]
  IC50: 0.916 µM (active)

## N#Cc1nc(-c2ccc(OCc3ccc(Cl)cc3)cc2)oc1NCCCn1ccnc1
[14]
  IC50: 4.52 µM (active)

## C[C@H](O)C#Cc1ccc2c(c1)O[C@@H](CN(C)Cc1ccc(-c3ccccc3)cc1)[C@@H](C)CN([C@@H](C)CO)S2(=O)=O
[15]
  AC50: > 70 µM (inactive)
[16]
  AC50: < 0.195 µM (active)
[17]
  AC50: 14.7 µM (active)
[18]
  AC50: 11.2 µM (active)
[19]
  AC50: > 60 µM (inactive)
[20]
  AC50: 22.6 µM (active)
Paired box protein Pax-8
  AC50: 11.5 µM (active)

## CC(=O)Nc1ccc(SCC(=O)c2cc(C)n(CC3CCCO3)c2C)cc1 (centres undefined)
[21]
  EC50: 4.8 µM (active)

## COc1ccccc1CN1C[C@@H](C)[C@H](OC)CN(C)C(=O)c2ccc(NC(=O)Nc3ccccc3OC)cc2OC[C@H]1C
[22]
  AC50: 0.0185 µM (active)
[23]
  AC50: > 100 µM (inactive)
[24]
  AC50: 2.1 µM (active)
[25]
  AC50: 0.189 µM (active)
[26]
  AC50: < 0.3 µM (active)
[27]
  AC50: 0.163 µM (active)
[28]
  AC50: 0.116 µM (active)

## O=C(CSc1nc2cccc(F)c2c(=O)n1-c1ccccc1)Nc1ccc2c(c1)CCC2
Vero [29]
  CC50: > 200 µM (active)

## COc1ccccc1C(=O)Nc1cc(NC(=O)c2ccccc2C(C)C)ccc1F
[30]
  IC50: 0.109 µM (active)
[31]
  IC50: 0.71 µM (active)

## CCOc1c(Cl)cc(CNc2ccc(N3CCCC3)cc2)cc1OC
[32]
  IC50: 37.7 µM (active)
[33]
  IC50: 3.93 µM (active)
Vero [34]
  CC50: 27.8 µM (active)
[35]
  EC50: > 60 µM (not active)
[36]
  CC50: 100 µM (active)
[37]
  EC50: 4.98 µM (active)
[11]
  IC50: 2.69 µM (active)
Genome polyprotein
  IC50: 93.2 µM (active)

## Cn1nc(C(F)(F)F)c(C#N)c1N1CCN(c2ccc(F)cc2)CC1
[38]
  CC50: 8.85 µM (active)
[39]
  CC50: > 40 µM (active)
